Experiments:
PIK3C2B (human) = PIK3C2B (human) (UniProt O00750); assay: KINOMEscan competition binding; details: compound 10.0 µM
PIK3CA (human) = PIK3CA (human) (UniProt P42336); assay: KINOMEscan competition binding; details: compound 10.0 µM
RPS6KA4 KD2 (human) = RPS6KA4 KD2 (human) (UniProt O75676); assay: KINOMEscan competition binding; details: compound 10.0 µM
PLK4 (human) = PLK4 (human) (UniProt O00444); assay: KINOMEscan competition binding; details: compound 10.0 µM
MAP2K3 (human) = MAP2K3 (human) (UniProt P46734); assay: KINOMEscan competition binding; details: compound 10.0 µM
LATS2 (human) = LATS2 (human) (UniProt Q9NRM7); assay: KINOMEscan competition binding; details: compound 10.0 µM
PIK3CG (human) = PIK3CG (human) (UniProt P48736); assay: KINOMEscan competition binding; details: compound 10.0 µM
PIM1 (human) [1] = target: PIM1 (human) (UniProt P11309); assay: KINOMEscan competition binding; details: compound 10.0 µM
Chain of PIM1 (human) (P11309 whole entry, looked up): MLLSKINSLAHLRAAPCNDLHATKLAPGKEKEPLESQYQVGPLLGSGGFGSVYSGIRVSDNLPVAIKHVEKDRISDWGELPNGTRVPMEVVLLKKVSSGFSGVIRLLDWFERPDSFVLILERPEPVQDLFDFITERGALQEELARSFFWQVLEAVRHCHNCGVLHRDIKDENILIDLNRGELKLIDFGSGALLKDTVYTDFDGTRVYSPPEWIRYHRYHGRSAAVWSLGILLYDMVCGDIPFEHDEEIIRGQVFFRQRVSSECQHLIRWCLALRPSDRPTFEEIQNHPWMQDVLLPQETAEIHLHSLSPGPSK

DAPK2 (human) = DAPK2 (human) (UniProt Q9UIK4); assay: KINOMEscan competition binding; details: compound 10.0 µM
MINK1 (human) = MINK1 (human) (UniProt Q8N4C8); assay: KINOMEscan competition binding; details: compound 10.0 µM
CDK7 (human) = CDK7 (human) (UniProt P50613); assay: KINOMEscan competition binding; details: compound 10.0 µM
DAPK3 (human) = DAPK3 (human) (UniProt O43293); assay: KINOMEscan competition binding; details: compound 10.0 µM
TAOK1 (human) = TAOK1 (human) (UniProt Q7L7X3); assay: KINOMEscan competition binding; details: compound 10.0 µM
PIM3 (human) = PIM3 (human) (UniProt Q86V86); assay: KINOMEscan competition binding; details: compound 10.0 µM
HIPK1 (human) = HIPK1 (human) (UniProt Q86Z02); assay: KINOMEscan competition binding; details: compound 10.0 µM
PIK3CD (human) = PIK3CD (human) (UniProt O00329); assay: KINOMEscan competition binding; details: compound 10.0 µM
PIM2 (human) [2] = target: PIM2 (human) (UniProt Q9P1W9); assay: KINOMEscan competition binding; details: compound 10.0 µM
Chain of PIM2 (human) (Q9P1W9 whole entry, looked up): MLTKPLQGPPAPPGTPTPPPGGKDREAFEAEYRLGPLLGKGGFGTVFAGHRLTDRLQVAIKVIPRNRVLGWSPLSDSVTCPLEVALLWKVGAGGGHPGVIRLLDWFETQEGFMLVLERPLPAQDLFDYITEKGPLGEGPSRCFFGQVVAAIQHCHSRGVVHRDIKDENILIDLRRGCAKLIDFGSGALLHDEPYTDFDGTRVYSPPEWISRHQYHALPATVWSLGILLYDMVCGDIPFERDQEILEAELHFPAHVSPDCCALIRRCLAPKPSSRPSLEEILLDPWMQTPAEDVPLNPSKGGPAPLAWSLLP

[3] = system: PIK3CA (human), P42336 [E545K]; assay: KINOMEscan competition binding; details: compound 10.0 µM
CSNK2A1 (human) = CSNK2A1 (human) (UniProt P68400); assay: KINOMEscan competition binding; details: compound 10.0 µM
STK17B (human) = STK17B (human) (UniProt O94768); assay: KINOMEscan competition binding; details: compound 10.0 µM
BTK (human) = BTK (human) (UniProt Q06187); assay: KINOMEscan competition binding; details: compound 10.0 µM
CSNK2A2 (human) = CSNK2A2 (human) (UniProt P19784); assay: KINOMEscan competition binding; details: compound 10.0 µM
CDK16 (human) = CDK16 (human) (UniProt Q00536); assay: KINOMEscan competition binding; details: compound 10.0 µM
AAK1 (human) = AAK1 (human) (UniProt Q2M2I8); assay: KINOMEscan competition binding; details: compound 10.0 µM
MAPK12 (human) = MAPK12 (human) (UniProt P53778); assay: KINOMEscan competition binding; details: compound 10.0 µM
DAPK1 (human) = DAPK1 (human) (UniProt P53355); assay: KINOMEscan competition binding; details: compound 10.0 µM
PIK3CB (human) = PIK3CB (human) (UniProt P42338); assay: KINOMEscan competition binding; details: compound 10.0 µM
PIM1 (human) [4] = target: PIM1 (human) (UniProt P11309); assay: SelectScreen, TR FRET
PIM2 (human) [5] = target: PIM2 (human) (UniProt Q9P1W9); assay: SelectScreen, TR FRET
PLK3 (human) = PLK3 (human) (UniProt Q9H4B4); assay: KINOMEscan competition binding; details: compound 10.0 µM
PLK1 (human) = PLK1 (human) (UniProt P53350); assay: KINOMEscan competition binding; details: compound 10.0 µM
GAK (human) = GAK (human) (UniProt O14976); assay: KINOMEscan competition binding; details: compound 10.0 µM
Chain of GAK (human) (O14976 whole entry, looked up): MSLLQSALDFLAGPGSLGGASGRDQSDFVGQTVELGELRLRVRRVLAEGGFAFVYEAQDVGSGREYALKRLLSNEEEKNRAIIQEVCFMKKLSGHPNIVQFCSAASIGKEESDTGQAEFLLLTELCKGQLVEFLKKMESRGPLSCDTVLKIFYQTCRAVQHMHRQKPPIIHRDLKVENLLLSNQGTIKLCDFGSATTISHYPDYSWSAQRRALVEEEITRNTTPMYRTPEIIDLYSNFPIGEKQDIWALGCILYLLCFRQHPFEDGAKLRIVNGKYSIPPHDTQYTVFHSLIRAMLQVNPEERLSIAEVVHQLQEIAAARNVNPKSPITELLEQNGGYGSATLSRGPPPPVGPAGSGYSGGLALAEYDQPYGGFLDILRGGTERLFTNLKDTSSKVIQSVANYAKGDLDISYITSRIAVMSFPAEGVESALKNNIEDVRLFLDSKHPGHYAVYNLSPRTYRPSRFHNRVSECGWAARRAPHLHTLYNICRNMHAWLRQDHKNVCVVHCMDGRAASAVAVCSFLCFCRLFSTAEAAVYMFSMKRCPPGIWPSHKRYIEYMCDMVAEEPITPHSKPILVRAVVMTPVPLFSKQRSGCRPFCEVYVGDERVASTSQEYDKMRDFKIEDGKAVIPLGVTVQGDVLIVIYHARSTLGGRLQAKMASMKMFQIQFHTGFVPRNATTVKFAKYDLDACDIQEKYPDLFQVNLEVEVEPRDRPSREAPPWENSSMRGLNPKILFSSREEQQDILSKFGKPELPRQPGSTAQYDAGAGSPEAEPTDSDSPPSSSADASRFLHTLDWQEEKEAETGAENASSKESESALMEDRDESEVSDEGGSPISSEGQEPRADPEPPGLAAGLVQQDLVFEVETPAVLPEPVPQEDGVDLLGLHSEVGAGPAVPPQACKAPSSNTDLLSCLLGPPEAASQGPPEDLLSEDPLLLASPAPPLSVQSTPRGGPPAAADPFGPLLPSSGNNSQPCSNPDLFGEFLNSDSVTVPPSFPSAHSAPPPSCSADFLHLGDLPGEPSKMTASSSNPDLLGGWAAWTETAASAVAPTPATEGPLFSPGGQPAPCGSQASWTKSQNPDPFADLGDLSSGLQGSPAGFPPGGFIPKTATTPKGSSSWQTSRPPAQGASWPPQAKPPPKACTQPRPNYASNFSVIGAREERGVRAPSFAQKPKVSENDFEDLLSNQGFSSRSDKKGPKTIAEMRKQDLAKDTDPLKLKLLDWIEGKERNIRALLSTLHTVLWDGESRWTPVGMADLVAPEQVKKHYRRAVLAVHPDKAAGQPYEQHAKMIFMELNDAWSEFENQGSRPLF

RAF1 (human) = RAF1 (human) (UniProt P04049); assay: KINOMEscan competition binding; details: compound 10.0 µM
TTK (human) [6] = target: TTK (human) (UniProt P33981); assay: KINOMEscan competition binding; details: for kinase still bound, per cent of control: compound 10.0 µM
Chain of TTK (human) (P33981 whole entry, looked up): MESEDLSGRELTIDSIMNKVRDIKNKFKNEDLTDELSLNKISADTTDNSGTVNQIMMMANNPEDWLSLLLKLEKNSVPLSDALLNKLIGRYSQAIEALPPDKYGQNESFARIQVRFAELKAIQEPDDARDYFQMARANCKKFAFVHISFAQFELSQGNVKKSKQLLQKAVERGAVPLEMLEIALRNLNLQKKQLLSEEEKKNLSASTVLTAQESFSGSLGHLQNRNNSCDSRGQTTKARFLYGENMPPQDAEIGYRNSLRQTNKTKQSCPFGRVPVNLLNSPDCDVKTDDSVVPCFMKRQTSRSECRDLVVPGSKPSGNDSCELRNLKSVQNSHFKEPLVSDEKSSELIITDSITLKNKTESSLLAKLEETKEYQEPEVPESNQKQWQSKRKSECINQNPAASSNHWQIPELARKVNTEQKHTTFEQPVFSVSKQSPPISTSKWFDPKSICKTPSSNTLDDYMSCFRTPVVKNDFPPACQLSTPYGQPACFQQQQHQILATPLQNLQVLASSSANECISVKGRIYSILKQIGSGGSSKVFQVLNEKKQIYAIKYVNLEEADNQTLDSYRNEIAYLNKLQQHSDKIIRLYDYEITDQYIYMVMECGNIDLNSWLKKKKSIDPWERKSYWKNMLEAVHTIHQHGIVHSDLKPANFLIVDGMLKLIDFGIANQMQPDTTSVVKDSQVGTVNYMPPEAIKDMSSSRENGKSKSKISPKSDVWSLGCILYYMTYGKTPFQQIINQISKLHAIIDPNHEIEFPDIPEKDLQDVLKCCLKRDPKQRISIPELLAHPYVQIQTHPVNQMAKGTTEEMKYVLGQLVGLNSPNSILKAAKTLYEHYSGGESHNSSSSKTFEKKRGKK

RPS6KA2 KD2 (human) = RPS6KA2 KD2 (human) (UniProt Q15349); assay: KINOMEscan competition binding; details: compound 10.0 µM
Chain of RPS6KA2 KD2 (human) (Q15349 whole entry, looked up): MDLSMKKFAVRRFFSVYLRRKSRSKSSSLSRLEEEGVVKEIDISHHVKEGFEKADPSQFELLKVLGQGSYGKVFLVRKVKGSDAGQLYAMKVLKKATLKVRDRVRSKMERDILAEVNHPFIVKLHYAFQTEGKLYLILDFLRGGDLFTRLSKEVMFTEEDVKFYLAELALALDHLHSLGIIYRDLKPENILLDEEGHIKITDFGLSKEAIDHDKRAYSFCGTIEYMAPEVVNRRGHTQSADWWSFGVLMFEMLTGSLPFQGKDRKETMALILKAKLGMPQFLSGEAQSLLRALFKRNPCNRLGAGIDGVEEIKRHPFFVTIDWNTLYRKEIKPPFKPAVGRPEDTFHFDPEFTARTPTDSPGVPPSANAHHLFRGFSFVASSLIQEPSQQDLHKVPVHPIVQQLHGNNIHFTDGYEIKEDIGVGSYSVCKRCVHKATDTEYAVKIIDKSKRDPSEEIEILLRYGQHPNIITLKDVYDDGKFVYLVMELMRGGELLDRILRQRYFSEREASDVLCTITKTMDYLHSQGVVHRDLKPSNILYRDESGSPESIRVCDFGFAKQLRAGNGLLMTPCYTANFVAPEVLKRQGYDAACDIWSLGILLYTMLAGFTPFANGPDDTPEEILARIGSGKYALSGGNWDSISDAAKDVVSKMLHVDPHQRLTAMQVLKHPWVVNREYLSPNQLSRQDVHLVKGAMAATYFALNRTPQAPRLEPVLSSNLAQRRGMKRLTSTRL

MYLK (human) = MYLK (human) (UniProt Q15746); assay: KINOMEscan competition binding; details: compound 10.0 µM
STK33 (human) = STK33 (human) (UniProt Q9BYT3); assay: KINOMEscan competition binding; details: compound 10.0 µM
PTK2 (human) = PTK2 (human) (UniProt Q05397); assay: KINOMEscan competition binding; details: compound 10.0 µM
TTK (human) [7] = target: TTK (human) (UniProt P33981); assay: SelectScreen, TR FRET
MAPK8 (human) = MAPK8 (human) (UniProt P45983); assay: KINOMEscan competition binding; details: compound 10.0 µM
STK24 (human) = STK24 (human) (UniProt Q9Y6E0); assay: KINOMEscan competition binding; details: compound 10.0 µM
MKNK2 (human) = MKNK2 (human) (UniProt Q9HBH9); assay: KINOMEscan competition binding; details: compound 10.0 µM
CDC42BPB (human) = CDC42BPB (human) (UniProt Q9Y5S2); assay: KINOMEscan competition binding; details: compound 10.0 µM
RPS6KA6 KD2 (human) = RPS6KA6 KD2 (human) (UniProt Q9UK32); assay: KINOMEscan competition binding; details: compound 10.0 µM
DDR1 (human) = DDR1 (human) (UniProt Q08345); assay: KINOMEscan competition binding; details: compound 10.0 µM
RPS6KA1 KD2 (human) = RPS6KA1 KD2 (human) (UniProt Q15418); assay: KINOMEscan competition binding; details: compound 10.0 µM
TLK1 (human) = TLK1 (human) (UniProt Q9UKI8); assay: KINOMEscan competition binding; details: compound 10.0 µM
CLK2 (human) = CLK2 (human) (UniProt P49760); assay: KINOMEscan competition binding; details: compound 10.0 µM
EIF2AK2 (human) = EIF2AK2 (human) (UniProt P19525); assay: KINOMEscan competition binding; details: compound 10.0 µM
MYLK4 (human) = MYLK4 (human) (UniProt Q86YV6); assay: KINOMEscan competition binding; details: compound 10.0 µM
MAPK9 (human) = MAPK9 (human) (UniProt P45984); assay: KINOMEscan competition binding; details: compound 10.0 µM
PAK7 (human) = PAK7 (human) (UniProt Q9P286); assay: KINOMEscan competition binding; details: compound 10.0 µM
MAPK14 (human) = MAPK14 (human) (UniProt Q16539); assay: KINOMEscan competition binding; details: compound 10.0 µM
ZAP70 (human) = ZAP70 (human) (UniProt P43403); assay: KINOMEscan competition binding; details: compound 10.0 µM
MAPK15 (human) = MAPK15 (human) (UniProt Q8TD08); assay: KINOMEscan competition binding; details: compound 10.0 µM
STK17A (human) = STK17A (human) (UniProt Q9UEE5); assay: KINOMEscan competition binding; details: compound 10.0 µM
TLK2 (human) = TLK2 (human) (UniProt Q86UE8); assay: KINOMEscan competition binding; details: compound 10.0 µM
MAPK10 (human) = MAPK10 (human) (UniProt P53779); assay: KINOMEscan competition binding; details: compound 10.0 µM
STK25 (human) = STK25 (human) (UniProt O00506); assay: KINOMEscan competition binding; details: compound 10.0 µM
PAK2 (human) = PAK2 (human) (UniProt Q13177); assay: KINOMEscan competition binding; details: compound 10.0 µM
TAOK3 (human) = TAOK3 (human) (UniProt Q9H2K8); assay: KINOMEscan competition binding; details: compound 10.0 µM

Chain of PLK4 (human) (O00444 whole entry, looked up): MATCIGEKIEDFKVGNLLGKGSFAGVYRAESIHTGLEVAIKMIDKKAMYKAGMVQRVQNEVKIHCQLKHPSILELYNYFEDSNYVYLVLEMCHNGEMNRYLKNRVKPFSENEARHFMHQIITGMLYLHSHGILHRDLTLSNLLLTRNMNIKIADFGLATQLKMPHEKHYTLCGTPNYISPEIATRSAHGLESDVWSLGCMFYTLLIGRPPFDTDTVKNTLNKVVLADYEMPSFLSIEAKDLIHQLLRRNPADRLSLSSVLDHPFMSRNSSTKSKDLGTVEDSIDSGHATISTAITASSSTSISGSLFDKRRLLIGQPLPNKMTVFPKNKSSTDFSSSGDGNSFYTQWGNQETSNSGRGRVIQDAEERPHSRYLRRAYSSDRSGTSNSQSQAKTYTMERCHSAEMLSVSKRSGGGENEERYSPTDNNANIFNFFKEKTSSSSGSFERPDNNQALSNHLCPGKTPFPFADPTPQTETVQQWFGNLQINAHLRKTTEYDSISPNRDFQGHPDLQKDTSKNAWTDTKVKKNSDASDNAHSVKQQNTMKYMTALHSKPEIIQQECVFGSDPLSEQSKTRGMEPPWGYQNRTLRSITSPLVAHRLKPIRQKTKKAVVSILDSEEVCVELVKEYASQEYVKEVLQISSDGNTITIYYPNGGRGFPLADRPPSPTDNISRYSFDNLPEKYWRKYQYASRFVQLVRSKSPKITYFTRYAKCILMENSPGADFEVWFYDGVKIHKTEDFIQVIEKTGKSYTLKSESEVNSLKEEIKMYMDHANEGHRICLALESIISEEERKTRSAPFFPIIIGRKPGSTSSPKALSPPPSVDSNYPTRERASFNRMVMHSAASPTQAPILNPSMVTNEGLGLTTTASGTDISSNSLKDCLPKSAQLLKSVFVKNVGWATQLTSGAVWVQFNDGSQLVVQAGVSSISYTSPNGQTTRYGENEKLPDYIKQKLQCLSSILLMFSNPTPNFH

Row | kinase still bound, per cent of control (RPS6KA4 KD2 (human)) [%] | kinase still bound, per cent of control (PLK4 (human)) [%] | kinase still bound, per cent of control (MAP2K3 (human)) [%] | kinase still bound, per cent of control (PIM1 (human) [1]) [%] | kinase still bound, per cent of control (CDK7 (human)) [%] | kinase still bound, per cent of control (TAOK1 (human)) [%] | kinase still bound, per cent of control (PIM3 (human)) [%] | kinase still bound, per cent of control (HIPK1 (human)) [%] | kinase still bound, per cent of control (PIM2 (human) [2]) [%] | kinase still bound, per cent of control (CSNK2A1 (human)) [%] | kinase still bound, per cent of control (STK17B (human)) [%] | kinase still bound, per cent of control (CSNK2A2 (human)) [%] | kinase still bound, per cent of control (CDK16 (human)) [%] | kinase still bound, per cent of control (AAK1 (human)) [%] | IC50 (PIM1 (human) [4]) [µM] | IC50 (PIM2 (human) [5]) [nM] | kinase still bound, per cent of control (PLK3 (human)) [%] | kinase still bound, per cent of control (GAK (human)) [%] | kinase still bound, per cent of control (TTK (human) [6]) [%] | kinase still bound, per cent of control (RPS6KA2 KD2 (human)) [%] | Compound | further results
1 | 9.9 | 21 | 34 | 4 | 27 | 9.6 | 4.9 | 2.4 | 0.9 | 18 | 9 | 7.9 | 19 | 34 | 0.215 | 125 | – | – | – | – | NS(=O)(=O)c1ccc(-c2ccc(/C=C3\SC(=O)NC3=O)o2)cc1 | kinase still bound, per cent of control (PIK3C2B (human)): 18%; kinase still bound, per cent of control (PIK3CA (human)): 15%; kinase still bound, per cent of control (LATS2 (human)): 8.1%; kinase still bound, per cent of control (PIK3CG (human)): 3.6%; kinase still bound, per cent of control (DAPK2 (human)): 6.4%; kinase still bound, per cent of control (MINK1 (human)): 1.8%; kinase still bound, per cent of control (DAPK3 (human)): 11%; kinase still bound, per cent of control (PIK3CD (human)): 32%; kinase still bound, per cent of control [3]: 20%; kinase still bound, per cent of control (BTK (human)): 30%; kinase still bound, per cent of control (MAPK12 (human)): 28%; kinase still bound, per cent of control (DAPK1 (human)): 6%; kinase still bound, per cent of control (PIK3CB (human)): 31%
2 | 1.9 | – | – | – | – | – | – | – | – | – | – | – | – | – | – | – | 5.8 | 27 | 7.4 | 32 | CCN(CC)C1CCN(c2ccc(Nc3ncc4c(n3)N3CCCC3C=CN4C)c(OC(C)C)c2)CC1 (centres undefined) | kinase still bound, per cent of control (PLK1 (human)): 4.4%; kinase still bound, per cent of control (RAF1 (human)): 0%; kinase still bound, per cent of control (MYLK (human)): 25%
3 | – | 14 | – | – | – | – | – | – | – | – | – | – | – | – | – | – | 0 | 2.4 | 2.2 | – | COc1cc(N(C)CCO)ccc1Nc1ncc2c(n1)N(C1CCCC1)CCC(=O)N2C | kinase still bound, per cent of control (PLK1 (human)): 7.4%; kinase still bound, per cent of control (RAF1 (human)): 0%; Kd (TTK (human) [6]): 157 nM; kinase still bound, per cent of control (STK33 (human)): 17%; kinase still bound, per cent of control (PTK2 (human)): 17%; IC50 (TTK (human) [7]): 1370 nM
4 | – | – | – | 14 | – | – | 11 | – | 0.75 | 33 | 7.4 | 33 | – | – | 9.02 | 2910 | – | – | – | 31 | O=C1NC(=O)/C(=C/c2ccc(-c3ccc4c(C(=O)Nc5cccc(C(F)(F)F)c5)cccc4c3)o2)S1 | kinase still bound, per cent of control (MAPK8 (human)): 30%; kinase still bound, per cent of control (STK24 (human)): 29%; kinase still bound, per cent of control (MKNK2 (human)): 34%; kinase still bound, per cent of control (CDC42BPB (human)): 28%; kinase still bound, per cent of control (RPS6KA6 KD2 (human)): 25%; kinase still bound, per cent of control (DDR1 (human)): 21%; kinase still bound, per cent of control (RPS6KA1 KD2 (human)): 23%; kinase still bound, per cent of control (TLK1 (human)): 24%
5 | – | 0.05 | 14 | 1.6 | 1.4 | 3.6 | 1.8 | 6.5 | 3 | – | – | – | 0.1 | 14 | – | – | – | 6.7 | 16 | 5.3 | CSC1=NC(=O)/C(=C/c2ccc(-c3ccc(S(N)(=O)=O)cc3)o2)S1 | kinase still bound, per cent of control (CLK2 (human)): 9.8%; kinase still bound, per cent of control (EIF2AK2 (human)): 17%; kinase still bound, per cent of control (MYLK4 (human)): 19%; kinase still bound, per cent of control (MAPK8 (human)): 31%; kinase still bound, per cent of control (MAPK9 (human)): 6%; kinase still bound, per cent of control (PAK7 (human)): 28%; kinase still bound, per cent of control (MAPK14 (human)): 19%; kinase still bound, per cent of control (ZAP70 (human)): 32%; kinase still bound, per cent of control (RPS6KA6 KD2 (human)): 18%; kinase still bound, per cent of control (MAPK15 (human)): 29%; kinase still bound, per cent of control (STK17A (human)): 2.5%; kinase still bound, per cent of control (TLK2 (human)): 28%; kinase still bound, per cent of control (RPS6KA1 KD2 (human)): 12%; kinase still bound, per cent of control (MAPK10 (human)): 22%; kinase still bound, per cent of control (STK25 (human)): 32%; kinase still bound, per cent of control (PAK2 (human)): 34%; kinase still bound, per cent of control (TAOK3 (human)): 24%

— the kinase profiling compilation of Christmann-Franck et al. (2016)
